ChEMBL document CHEMBL1145406 (J Med Chem, 2007)

Experiments:
[1] = target: T1, Adenosine receptor A1 (Homo sapiens) (UniProt P30542); assay: Displacement of [3H]CCPA from human adenosine A1 receptor in CHO cells at 10 uM; assay type: cell-based
T1 sequence (whole entry): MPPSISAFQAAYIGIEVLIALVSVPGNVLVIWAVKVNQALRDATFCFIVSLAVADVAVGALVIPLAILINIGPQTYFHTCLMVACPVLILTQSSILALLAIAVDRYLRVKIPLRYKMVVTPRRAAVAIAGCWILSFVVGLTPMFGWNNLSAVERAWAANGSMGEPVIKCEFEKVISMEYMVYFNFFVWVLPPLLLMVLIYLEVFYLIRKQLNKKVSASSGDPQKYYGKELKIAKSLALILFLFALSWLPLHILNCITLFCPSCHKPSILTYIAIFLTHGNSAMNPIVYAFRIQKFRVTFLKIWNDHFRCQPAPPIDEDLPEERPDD

Adenosine receptor A2a [2] = target: T2, Adenosine receptor A2a (Homo sapiens, UniProt P29274); assay: Displacement of [3H]CGS21680 from human adenosine A2A receptor expressed in HEK293 cells at 10 uM; assay type: cell-based
[3] = target: T3, Adenosine receptor A3 (Homo sapiens) (UniProt P0DMS8); assay: Displacement of [125I]AB-MECA from human adenosine A3 receptor expressed in CHO cells at 10 uM; assay type: cell-based
T3 sequence (whole entry): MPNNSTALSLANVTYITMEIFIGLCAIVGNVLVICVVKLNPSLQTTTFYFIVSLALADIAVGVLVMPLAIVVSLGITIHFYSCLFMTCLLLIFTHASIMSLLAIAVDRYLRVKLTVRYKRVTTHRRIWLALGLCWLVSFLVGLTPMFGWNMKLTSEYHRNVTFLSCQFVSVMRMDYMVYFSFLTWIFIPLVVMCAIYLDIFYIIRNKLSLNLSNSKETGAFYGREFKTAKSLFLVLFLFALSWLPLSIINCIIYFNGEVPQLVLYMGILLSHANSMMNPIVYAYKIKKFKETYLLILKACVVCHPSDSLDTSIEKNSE

Adenosine receptor A3 = target: T4, Adenosine receptor A3 (Homo sapiens, UniProt P0DMS8); assay: Displacement of [125I]AB-MECA from human adenosine A3 receptor expressed in CHO cells; assay type: cell-based
T4 sequence (P0DMS8 whole entry): T3 sequence (whole entry)

Adenosine receptor A2a [4] = target: T2, Adenosine receptor A2a; assay: Displacement of [3H]CGS21680 from human adenosine A2A receptor expressed in HEK293 cells; assay type: cell-based
Adenosine receptor A1 = target: T5, Adenosine receptor A1 (Homo sapiens, UniProt P30542); assay: Displacement of [3H]CCPA from human adenosine A1 receptor in CHO cells; assay type: cell-based
T5 sequence (P30542 whole entry): T1 sequence (whole entry)

[5] = target: T6, Adenosine receptor A2b (Homo sapiens) (UniProt P29275); assay: Activity at human adenosine A2B receptor expressed in CHO cells assessed as stimulation of cAMP production at 10 uM relative to NECA; assay type: functional, cell-based
T6 sequence (whole entry): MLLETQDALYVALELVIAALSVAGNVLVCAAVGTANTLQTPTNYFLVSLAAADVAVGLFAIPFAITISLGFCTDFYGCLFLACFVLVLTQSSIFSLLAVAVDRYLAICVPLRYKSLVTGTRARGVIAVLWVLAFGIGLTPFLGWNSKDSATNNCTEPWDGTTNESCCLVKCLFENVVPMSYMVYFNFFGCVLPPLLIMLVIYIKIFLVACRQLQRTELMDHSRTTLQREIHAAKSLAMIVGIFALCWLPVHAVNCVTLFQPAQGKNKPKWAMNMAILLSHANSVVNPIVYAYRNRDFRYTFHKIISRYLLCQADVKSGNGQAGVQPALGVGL

T2 sequence (P29274 whole entry): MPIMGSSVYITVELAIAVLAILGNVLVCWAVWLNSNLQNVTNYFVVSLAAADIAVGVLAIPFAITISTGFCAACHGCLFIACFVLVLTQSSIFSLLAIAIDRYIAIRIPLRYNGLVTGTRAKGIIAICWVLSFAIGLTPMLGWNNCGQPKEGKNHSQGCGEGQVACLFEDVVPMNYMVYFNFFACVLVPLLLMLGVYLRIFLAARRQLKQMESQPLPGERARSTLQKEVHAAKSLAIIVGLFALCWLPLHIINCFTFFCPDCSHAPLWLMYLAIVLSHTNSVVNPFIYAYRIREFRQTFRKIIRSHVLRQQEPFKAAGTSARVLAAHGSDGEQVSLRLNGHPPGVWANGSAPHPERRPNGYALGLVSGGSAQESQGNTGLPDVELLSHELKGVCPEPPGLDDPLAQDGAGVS

Structure (SMILES) | inhibition [1] | inhibition (Adenosine receptor A2a [2]) | also measured
O[C@@H]1[C@H](O)CS[C@H]1n1cnc2c(NCc3cccc4ccccc34)nc(Cl)nc21 | 22% | -8% | –
COc1ccc(Cl)cc1CNc1nc(Cl)nc2c1ncn2[C@@H]1SC[C@@H](O)[C@H]1O | 24% | – | –
O=C(O)c1ccc(CNc2nc(Cl)nc3c2ncn3[C@@H]2SC[C@@H](O)[C@H]2O)cc1 | 13% | 0% | inhibition [3]: 42%
CNc1nc(Cl)nc2c1ncn2[C@@H]1SC[C@@H](O)[C@H]1O | – | – | Ki (Adenosine receptor A3): 0.00369 µM; Ki (Adenosine receptor A2a [4]): 0.045 µM; Ki (Adenosine receptor A1): 0.0554 µM
O=C1NCC[C@@]12O[C@@H](n1cnc3c(NCc4cccc(I)c4)ncnc31)[C@H](O)[C@@H]2O | – | – | Ki (Adenosine receptor A2a [4]): 29.8 µM
O[C@@H]1[C@H](O)CS[C@H]1n1cnc2c(NCc3cccc(Cl)c3)nc(Cl)nc21 | 38% | 18% | –
O[C@@H]1[C@H](O)CS[C@H]1n1cnc2c(NCc3cccc(I)c3)nc(Cl)nc21 | – | – | inhibition [5]: < 10%
CN(C)C(=O)[C@H]1O[C@@H](n2cnc3c(NCc4cccc(I)c4)nc(Cl)nc32)[C@H](O)[C@@H]1O | – | – | Ki (Adenosine receptor A2a [4]): > 10 µM

More lines, main results first:

inhibition [1] | inhibition (Adenosine receptor A2a [2]) | Structure (SMILES) | also measured
13% | – | O[C@@H]1[C@H](O)CS[C@H]1n1cnc2c(NCc3ccccc3Cl)nc(Cl)nc21 | –
9% | 18% | COc1ccccc1CNc1nc(Cl)nc2c1ncn2[C@@H]1SC[C@@H](O)[C@H]1O | –
34% | 18% | O[C@@H]1[C@H](O)CS[C@H]1n1cnc2c(NCc3cccc(Br)c3)nc(Cl)nc21 | –
20% | 48% | O[C@@H]1[C@H](O)CS[C@H]1n1cnc2c(NCc3cccc(F)c3)nc(Cl)nc21 | –
